US20090018111A1, “Novel Antimicrobial Medicament” (priority 2004, published 2009)
Where two headings read alike, the source gives them in different places.

Experiments:
Assay in all cases: Sensitivity test (agar dilution)
[1] = system: P. vurgalis OX-19; type: cell-based, Proteus vulgaris; details: Proteus vulgaris, P. vurgalis OX-19
In short: (§1)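 Agar dilution on Mueller Hinton agar per the Japan Chemotherapeutic Society method, with two-fold serial dilutions of single drugs or combinations dissolved in water. Overnight 37° C cultures were suspended in BSG at ~10^6 CFU/ml and ~5 μl spotted.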

[2] = system: P. vulgaris GN7919; type: cell-based, Proteus vulgaris; details: Proteus vulgaris, P. vulgaris GN7919
In short: as §1

[3] = system: S. epidermidis IAM1296; type: cell-based, Staphylococcus epidermidis; details: Staphylococcus epidermidis, S. epidermidis IAM1296
In short: as §1

[4] = system: E. cloacae GN7471; type: cell-based, Enterobacter cloacae; details: Enterobacter cloacae, E. cloacae GN7471
In short: as §1

[5] = system: P. aeruginosa IFO3451; type: cell-based, Pseudomonas aeruginosa; details: Pseudomonas aeruginosa, P. aeruginosa IFO3451
In short: as §1

[6] = system: S. marcescens X 100; type: cell-based, Serratia marcescens; details: Serratia marcescens, S. marcescens X 100
In short: as §1

[7] = system: S. marcescens GN6473; type: cell-based, Serratia marcescens; details: Serratia marcescens, S. marcescens GN6473
In short: as §1

[8] = system: Str. pyogenes Cook; type: cell-based, Streptococcus pyogenes; details: Streptococcus pyogenes, Str. pyogenes Cook
In short: as §1

[9] = system: S. aureus 209P; type: cell-based, Staphylococcus aureus; details: Staphylococcus aureus, 209P, S. aureus 209P
In short: as §1

[10] = system: S. aureus SP-7928 (homo-MRSA); type: cell-based, Staphylococcus aureus; details: Staphylococcus aureus, MRSA, S. aureus SP-7928 (homo-MRSA)
In short: as §1

[11] = system: S. aureus MS94088 (hetero-MRSA); type: cell-based, Staphylococcus aureus; details: Staphylococcus aureus, MRSA, S. aureus MS94088 (hetero-MRSA)
In short: as §1

[12] = system: E. coli NIHJ JC-2; type: cell-based, Escherichia coli; details: Escherichia coli, E. coli NIHJ JC-2
In short: as §1

[13] = system: E. coli ML1410; type: cell-based, Escherichia coli; details: Escherichia coli, E. coli ML1410
In short: as §1

[14] = Concomitant (PIPC:SM = 1:1), read-out: MIC concomitant
[15] = drug alone, read-out: MIC alone

Which MIC ([1]; OX19, read-out: MIC alone, drug alone) does the source give for `CCN1CCN(C(=O)N[C@@H](C(=O)N[C@@H]2C(=O)N3[C@@H]2SC(C)(C)[C@@H]3C(=O)O)c2ccccc2)C(=O)C1=O` [PIPC, piperacillin] here?
Its MIC is 8 ng/mL.

And the MIC ([1]; OX19, read-out: MIC concomitant, Concomitant (PIPC:SM = 1:1))?
The MIC was 8 ng/mL.

And the MIC ([2]; GN7919, Concomitant (PIPC:SM = 1:1), read-out: MIC concomitant)?
Its MIC is 0.5 µg/mL.

And the MIC ([2]; GN7919, drug alone, read-out: MIC alone)?
Its MIC is greater than 32 µg/mL.

What about the MIC ([3]; IAM1296, Concomitant (PIPC:SM = 1:1), read-out: MIC concomitant) of the same compound?
Its MIC is 0.016 µg/mL.

And the MIC ([3]; IAM1296, drug alone, read-out: MIC alone)?
Its MIC is 2 µg/mL.

What about the MIC ([4]; GN7471, Concomitant (PIPC:SM = 1:1), read-out: MIC concomitant) of the same compound?
Its MIC is 8 µg/mL.

And the MIC ([4]; GN7471, drug alone, read-out: MIC alone)?
The MIC was 16 µg/mL.

What about the MIC ([5]; IFO3451, Concomitant (PIPC:SM = 1:1), read-out: MIC concomitant) of the same compound?
The MIC was 8 µg/mL.

And the MIC ([5]; IFO3451, drug alone, read-out: MIC alone)?
Its MIC is 4 µg/mL.

What about the MIC ([6]; X100, Concomitant (PIPC:SM = 1:1), read-out: MIC concomitant) of the same compound?
The MIC was 0.25 µg/mL.

And the MIC ([6]; X100, drug alone, read-out: MIC alone)?
The MIC was 0.5 µg/mL.

What about the MIC ([7]; GN6473, Concomitant (PIPC:SM = 1:1), read-out: MIC concomitant) of the same compound?
Its MIC is 4 µg/mL.

What about the MIC ([7]; GN6473, drug alone, read-out: MIC alone) of the same compound?
Its MIC is greater than 32 µg/mL.

And the MIC [8, 14]?
The MIC was no more than 0.002 µg/mL.

And the MIC [8, 15]?
Its MIC is 0.031 µg/mL.

And the MIC [9, 14]?
Its MIC is 0.004 µg/mL.

And the MIC [9, 15]?
Its MIC is 0.25 µg/mL.

And the MIC [10, 14]?
Its MIC is 1 µg/mL.

And the MIC [10, 15]?
Its MIC is greater than 32 µg/mL.

And the MIC [11, 14]?
The MIC was 0.125 µg/mL.

What about the MIC [11, 15] of the same compound?
Its MIC is greater than 32 µg/mL.

And the MIC ([12]; NIHJJC2, Concomitant (PIPC:SM = 1:1), read-out: MIC concomitant)?
Its MIC is 0.063 µg/mL.

What about the MIC ([12]; NIHJJC2, drug alone, read-out: MIC alone) of the same compound?
Its MIC is 0.25 µg/mL.

What about the MIC ([13]; ML1410, Concomitant (PIPC:SM = 1:1), read-out: MIC concomitant) of the same compound?
Its MIC is 0.125 µg/mL.

What about the MIC ([13]; ML1410, drug alone, read-out: MIC alone) of the same compound?
Its MIC is 2 µg/mL.
